Measured values published in paper PMC6497469 (Infection and Drug Resistance, 2019).
Blank lines part the entries; values can stand above or below the molecule they belong to.

Columns and labels:
PA0847 [1] = biological target: T1, PA0847 (Pseudomonas aeruginosa, UniProt Q9I594); assay: titration of GTPγS to purified PAS-GGDEF; type: binding
T1 sequence (Q9I594 440-735 limits assumed): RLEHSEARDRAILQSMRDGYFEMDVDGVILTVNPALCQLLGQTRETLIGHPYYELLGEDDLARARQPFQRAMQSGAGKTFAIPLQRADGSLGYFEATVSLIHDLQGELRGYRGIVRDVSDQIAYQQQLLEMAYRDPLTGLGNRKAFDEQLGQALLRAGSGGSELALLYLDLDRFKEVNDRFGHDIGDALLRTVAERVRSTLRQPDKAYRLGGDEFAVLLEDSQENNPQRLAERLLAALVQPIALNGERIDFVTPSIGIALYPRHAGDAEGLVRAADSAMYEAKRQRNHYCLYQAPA

[2] = biological target: PA0847 PAS-GGDEF dual domains (Pseudomonas aeruginosa PAO1); assay: SEC
PA0847 [3] = biological target: T1, PA0847; assay: binding of c-di-GMP to purified PAS-GGDEF

Kd (PA0847 [1]): 15.3 ± 1.3 µM
Molecule: Nc1nc2c(ncn2[C@@H]2O[C@H](COP(=O)(O)OP(=O)(O)OP(O)(O)=S)[C@@H](O)[C@H]2O)c(=O)[nH]1 [GTPγS]

Molecule: PA0847 PAS-GGDEF dual domains (domain or fragment)
stoichiometry N [2]: 2

Kd (PA0847 [3]): ~59 µM
Molecule: Nc1nc2c(ncn2[C@@H]2O[C@@H]3CO[P@](=O)(O)O[C@H]4[C@@H](O)[C@H](n5cnc6c(=O)[nH]c(N)nc65)O[C@@H]4CO[P@](=O)(O)O[C@H]3[C@H]2O)c(=O)[nH]1 [c-di-GMP]
